ChEMBL document CHEMBL3397008, “Design, synthesis and evaluation of XZH-5 analogues as STAT3 inhibitors” (Bioorg Med Chem, 2015)

Columns and labels:
Format in all cases: functional, cell-based
[1] = Cytotoxicity against human PANC1 cells after 72 hrs by MTT assay; conditions: PANC-1, 72 h
HPAC = assay: Cytotoxicity against human HPAC cells after 72 hrs by MTT assay
SW1990 = assay: Cytotoxicity against human SW1990 cells after 72 hrs by MTT assay; conditions: SW1990, 72 h
MDA-MB-231 = assay: Cytotoxicity against human MDA-MB-231 cells after 72 hrs by MTT assay; conditions: MDA-MB-231, 72 h

`COC(=O)[C@H](Cc1cn(C)cn1)NC(=O)[C@@H](NC(=O)Nc1cc(C(F)(F)F)cc(C(F)(F)F)c1)C(C)C` showed an IC50 [1] of 24.7 µM, an IC50 (HPAC) of 17.4 µM and an IC50 (SW1990) of 17.9 µM. It also gave an IC50 (MDA-MB-231) of 15.5 µM.
Work on `COC(=O)[C@H](Cc1cn(C)cn1)NC(=O)[C@H](C)NC(=O)Nc1cc(C(F)(F)F)cc(C(F)(F)F)c1` yielded an IC50 [1] of 50 µM.
For `COC(=O)[C@H](Cc1cn(C)cn1)NC(=O)[C@H](CC(C)C)NC(=O)Nc1cc(C(F)(F)F)cc(C(F)(F)F)c1`, the IC50 [1] was 16.8 µM, the IC50 (HPAC) was 13.2 µM and the IC50 (SW1990) was 9.1 µM. For the same compound, the IC50 (MDA-MB-231) was 10.6 µM.
In the case of `CC[C@H](C)[C@H](NC(=O)Nc1cc(C(F)(F)F)cc(C(F)(F)F)c1)C(=O)N[C@@H](Cc1cn(C)cn1)C(=O)OC`, the IC50 [1] is reported as 10.1 µM, the IC50 (HPAC) is reported as 7.6 µM and the IC50 (SW1990) is reported as 8.3 µM. It also gave an IC50 (MDA-MB-231) of 6.5 µM.
`CC(C)[C@H](NC(=O)Nc1cc(C(F)(F)F)cc(C(F)(F)F)c1)C(=O)N[C@@H](Cc1cn(C)cn1)C(=O)O` gave an IC50 [1] of over 100 µM.
`C[C@H](NC(=O)Nc1cc(C(F)(F)F)cc(C(F)(F)F)c1)C(=O)N[C@@H](Cc1cn(C)cn1)C(=O)O` gave an IC50 [1] of over 100 µM.
In the case of `COC(=O)[C@H](Cc1cn(C)cn1)NC(=O)[C@H](Cc1ccccc1)NC(=O)Nc1cc(C(F)(F)F)cc(C(F)(F)F)c1`, the IC50 [1] is reported as 16.1 µM, the IC50 (HPAC) is reported as 9.6 µM and the IC50 (SW1990) is reported as 10.8 µM. It also gave an IC50 (MDA-MB-231) of 6.8 µM.
Compound `COC(=O)[C@H](Cc1cn(C)cn1)NC(=O)[C@H](Cc1c[nH]c2ccccc12)NC(=O)Nc1cc(C(F)(F)F)cc(C(F)(F)F)c1` has an IC50 [1] of 31.4 µM.
For `COC(=O)[C@H](Cc1cn(C)cn1)NC(=O)[C@H](CC(=O)OCc1ccccc1)NC(=O)Nc1cc(C(F)(F)F)cc(C(F)(F)F)c1`, the IC50 [1] was 68.6 µM.
`COC(=O)[C@H](Cc1cn(C)cn1)NC(=O)[C@H](CCC(=O)OCc1ccccc1)NC(=O)Nc1cc(C(F)(F)F)cc(C(F)(F)F)c1` gave an IC50 [1] of 85.5 µM.
`CCn1cnc(C[C@H](NC(=O)[C@@H](NC(=O)Nc2cc(C(F)(F)F)cc(C(F)(F)F)c2)C(C)C)C(=O)OC)c1` gave an IC50 [1] of 11.1 µM, an IC50 (HPAC) of 9.5 µM and an IC50 (SW1990) of 9.4 µM. The IC50 (MDA-MB-231) was 7.6 µM.
`COC(=O)[C@H](Cc1cn(C)cn1)NC(=O)[C@@H](NC(=O)Nc1cc(C(F)(F)F)cc(C(F)(F)F)c1)C(C)(C)C` showed an IC50 [1] of 8.8 µM, an IC50 (HPAC) of 9.8 µM and an IC50 (SW1990) of 8.5 µM. For the same compound, the IC50 (MDA-MB-231) was 9.4 µM.
In the case of `COC(=O)[C@H](Cc1c[nH]cn1)NC(=O)[C@@H](NC(=O)Nc1cc(C(F)(F)F)cc(C(F)(F)F)c1)C(C)C`, the IC50 [1] is reported as 98.4 µM.
With `COC(=O)[C@H](Cc1cn(C)cn1)NC(=O)[C@@H](NC(=O)Nc1cccc(C(F)(F)F)c1)C(C)C` the IC50 [1] was 61.9 µM.
